{"source": "BindingDB's records for doi:10.1016/j.bmcl.2017.05.059", "about": "(University of Mysore, 2017)", "test": "Inhibition of Vipera russelii venom sPLA2-induced hemolytic activity in human erythrocytes assessed as reduction hemoglobin release in presence of egg yolk preincubated for 5 mins followed by erythrocyte addition by spectrophotometric analysis", "data": [{"molecule": "COc1ccc(C2CC(c3ccco3)=Nc3ccccc3S2)cc1", "note": "(stereo unspecified)", "values": [{"measurement": "IC50", "value": 21.3, "unit": "µM"}]}]}
